Assay results: patent US20240360165A1, “INHIBITORS OF CYCLIN DEPENDENT KINASE 7 (CDK7)” (Syros Pharmaceuticals, Inc., priority 2016, published 2024)
Where two headings read alike, the source gives them in different places.

What was measured:
[1] = target: CDK7/Cyclin H/MAT1 complex (Homo sapiens, UniProt P50613); assay: CDK7 inhibition assay (Caliper/LabChip EZ Reader kinase assay); assay type: biochemical; conditions: Table 1, CDK7/Cyclin H/MAT1 6 nM, ATP 2 mM, 35 min at 27° C.
Procedure, shortened: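 A Perkin Elmer Caliper/LabChip EZ Reader (Waltham, MA) platform served as the basis for this CDK7 kinase inhibition assay. The work was carried out by Biortus Biosciences, located in Jiangyin, Jiangsu Province, P.R. of China. Each CDK studied had its own kinase assay, and compounds were evaluated for their ability to block CDK7 activity.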

CDK9/Cyclin T1 complex = CDK9/Cyclin T1 complex (Homo sapiens, UniProt P50750); assay: CDK9 inhibition assay (Caliper/LabChip EZ Reader kinase assay); assay type: biochemical; conditions: Table 1, CDK9/Cyclin T1 8 nM, ATP 2 mM, 15 min at 27° C.
Procedure, shortened: (§1)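 Activity read as fluorescent peptide conversion on a LabChip EZ Reader. For CDK2/Cyclin E1 (0.5 nM), substrate was 5-FAM-CDK7tide (2 μM) with 2 mM MgCl2; for CDK9/Cyclin T1 (8 nM), 5-FAM-CDK9tide (2 μM) with 10 mM MgCl2.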

[2] = target: T1, CDK12 (aa686-1082)/Cyclin K complex (Homo sapiens, UniProt Q9NYV4); assay: CDK12 inhibition assay (Caliper/LabChip EZ Reader kinase assay); assay type: biochemical; conditions: Table 1, CDK12 (aa686-1082)/Cyclin K 50 nM, ATP 2 mM, 3 hr at 27° C.
T1 construct: CDK12 (aa686-1082)/Cyclin K complex

CDK2/Cyclin E1 complex = CDK2/Cyclin E1 complex (Homo sapiens, UniProt P24941); assay: CDK2 inhibition assay (Caliper/LabChip EZ Reader kinase assay); assay type: biochemical; conditions: Table 1, CDK2/Cyclin E1 0.5 nM, ATP 2 mM, 35 min at 27° C.
Procedure, shortened: as §1

A673 cells = assay: Inhibition of proliferation of A673 cells (CyQUANT, 72 hour); assay type: cell-based, human; conditions: A673 cells, 72 hour, CyQUANT, read-out: Inhibition of Proliferation of A673 Cells (calculated IC50)
Procedure, shortened: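 Proliferation read-out by CyQUANT after a 72 h exposure, compounds spanning 4 μM–[…] in half-log steps. A673 cells cultured at 37° C under 5% CO2 in DMEM supplemented with 10% FBS plus 1 mM sodium pyruvate.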

HCC70 cells = assay: Inhibition of proliferation of HCC70 cells (CyQUANT Direct Cell Proliferation Assay, 72 hour); assay type: cell-based, human
Procedure, shortened: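 Human triple-negative breast cancer HCC70 cells cultured at 37° C, 5% CO2, with compound for 72 hour. Anti-proliferative effect read by CyQUANT Direct Cell Proliferation Assay. Dinaciclib, a CDK inhibitor analog and triptolide served as positive controls.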

[3] = Homo sapiens, HCC70, 72 h, read-out: Inhibition of Proliferation of HCC70 Cells (calculated IC50)
[4] = read-out: Inhibition of Proliferation of HCC70 Cells (calculated IC50)

T1 sequence (Q9NYV4 686-1082, species assumed): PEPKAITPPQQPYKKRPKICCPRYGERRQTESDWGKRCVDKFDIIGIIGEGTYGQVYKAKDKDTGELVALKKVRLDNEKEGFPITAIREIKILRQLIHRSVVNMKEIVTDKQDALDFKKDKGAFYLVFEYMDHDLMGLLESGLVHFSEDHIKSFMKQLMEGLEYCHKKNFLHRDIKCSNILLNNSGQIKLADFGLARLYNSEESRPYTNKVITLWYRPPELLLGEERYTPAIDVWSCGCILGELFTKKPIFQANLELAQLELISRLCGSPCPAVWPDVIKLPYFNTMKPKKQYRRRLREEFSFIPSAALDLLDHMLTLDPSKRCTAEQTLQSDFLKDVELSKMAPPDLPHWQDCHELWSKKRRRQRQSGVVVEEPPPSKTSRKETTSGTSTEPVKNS
T1 sequence (O75909 whole entry partner, species assumed, the tested form may be a part): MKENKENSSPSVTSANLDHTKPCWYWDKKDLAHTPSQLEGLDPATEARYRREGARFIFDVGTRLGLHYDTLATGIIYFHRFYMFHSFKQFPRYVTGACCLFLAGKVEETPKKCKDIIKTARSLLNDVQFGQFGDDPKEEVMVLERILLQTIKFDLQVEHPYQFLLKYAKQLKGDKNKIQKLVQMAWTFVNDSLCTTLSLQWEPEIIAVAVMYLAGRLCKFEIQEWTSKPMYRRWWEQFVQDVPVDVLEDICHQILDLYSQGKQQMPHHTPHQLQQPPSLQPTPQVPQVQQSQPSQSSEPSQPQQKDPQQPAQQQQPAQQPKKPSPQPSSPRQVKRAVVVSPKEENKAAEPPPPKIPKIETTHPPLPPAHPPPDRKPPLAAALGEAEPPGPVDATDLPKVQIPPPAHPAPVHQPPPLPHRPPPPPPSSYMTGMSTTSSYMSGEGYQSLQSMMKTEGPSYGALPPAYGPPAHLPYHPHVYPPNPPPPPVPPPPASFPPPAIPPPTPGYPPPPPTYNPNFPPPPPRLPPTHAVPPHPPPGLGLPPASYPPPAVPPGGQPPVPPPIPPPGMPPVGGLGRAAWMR
Sequence of CDK9/Cyclin T1 complex (P50750 whole entry, species assumed): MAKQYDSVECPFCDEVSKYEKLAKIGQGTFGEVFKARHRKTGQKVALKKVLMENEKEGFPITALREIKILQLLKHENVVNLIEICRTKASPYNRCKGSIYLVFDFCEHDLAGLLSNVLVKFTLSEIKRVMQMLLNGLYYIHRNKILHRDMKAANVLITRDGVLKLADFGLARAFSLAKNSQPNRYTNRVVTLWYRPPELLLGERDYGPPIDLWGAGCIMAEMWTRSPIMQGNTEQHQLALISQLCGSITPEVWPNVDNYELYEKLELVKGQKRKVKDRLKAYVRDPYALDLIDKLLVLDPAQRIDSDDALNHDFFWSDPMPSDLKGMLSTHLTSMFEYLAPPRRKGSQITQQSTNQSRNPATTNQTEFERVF
Sequence of CDK9/Cyclin T1 complex (O60563 whole entry partner, species assumed): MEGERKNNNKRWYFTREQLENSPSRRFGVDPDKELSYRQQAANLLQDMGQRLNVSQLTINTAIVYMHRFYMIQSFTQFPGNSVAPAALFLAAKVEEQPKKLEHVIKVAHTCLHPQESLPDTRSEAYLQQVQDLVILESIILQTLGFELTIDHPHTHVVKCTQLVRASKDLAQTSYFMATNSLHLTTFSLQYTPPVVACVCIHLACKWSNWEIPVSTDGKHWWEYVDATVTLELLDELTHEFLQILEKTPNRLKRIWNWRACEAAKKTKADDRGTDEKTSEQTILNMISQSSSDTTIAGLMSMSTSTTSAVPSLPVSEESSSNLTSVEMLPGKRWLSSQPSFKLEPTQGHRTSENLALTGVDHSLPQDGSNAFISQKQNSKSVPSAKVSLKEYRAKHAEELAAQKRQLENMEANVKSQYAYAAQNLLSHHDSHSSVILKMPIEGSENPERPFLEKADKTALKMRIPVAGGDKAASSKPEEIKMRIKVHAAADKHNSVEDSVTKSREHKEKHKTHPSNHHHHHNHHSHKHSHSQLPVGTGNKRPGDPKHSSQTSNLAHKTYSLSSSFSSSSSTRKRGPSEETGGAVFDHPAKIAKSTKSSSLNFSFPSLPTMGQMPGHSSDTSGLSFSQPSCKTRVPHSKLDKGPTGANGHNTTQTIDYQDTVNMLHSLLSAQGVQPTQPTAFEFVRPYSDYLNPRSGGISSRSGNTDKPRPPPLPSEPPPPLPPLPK
Sequence of CDK7/Cyclin H/MAT1 complex (P50613 whole entry, species assumed): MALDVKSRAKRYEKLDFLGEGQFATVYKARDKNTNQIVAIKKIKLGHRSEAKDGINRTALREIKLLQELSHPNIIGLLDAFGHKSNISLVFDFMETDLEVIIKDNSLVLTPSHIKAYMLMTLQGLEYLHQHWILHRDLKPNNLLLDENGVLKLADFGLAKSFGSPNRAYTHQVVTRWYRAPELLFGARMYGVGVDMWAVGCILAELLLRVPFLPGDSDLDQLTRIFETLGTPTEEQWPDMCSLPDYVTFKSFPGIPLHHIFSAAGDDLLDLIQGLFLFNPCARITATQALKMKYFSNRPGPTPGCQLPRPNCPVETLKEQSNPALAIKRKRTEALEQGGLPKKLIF
Sequence of CDK7/Cyclin H/MAT1 complex (P51946 whole entry partner, species assumed): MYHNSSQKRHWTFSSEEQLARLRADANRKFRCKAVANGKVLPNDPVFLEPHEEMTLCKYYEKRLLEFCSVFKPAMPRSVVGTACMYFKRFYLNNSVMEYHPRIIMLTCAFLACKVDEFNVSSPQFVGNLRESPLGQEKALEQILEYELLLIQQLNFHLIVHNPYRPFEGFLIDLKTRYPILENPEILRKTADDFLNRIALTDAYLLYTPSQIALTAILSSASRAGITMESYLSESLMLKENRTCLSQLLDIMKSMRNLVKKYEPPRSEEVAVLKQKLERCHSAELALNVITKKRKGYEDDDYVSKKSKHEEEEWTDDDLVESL
Sequence of CDK7/Cyclin H/MAT1 complex (P51948 whole entry partner, species assumed): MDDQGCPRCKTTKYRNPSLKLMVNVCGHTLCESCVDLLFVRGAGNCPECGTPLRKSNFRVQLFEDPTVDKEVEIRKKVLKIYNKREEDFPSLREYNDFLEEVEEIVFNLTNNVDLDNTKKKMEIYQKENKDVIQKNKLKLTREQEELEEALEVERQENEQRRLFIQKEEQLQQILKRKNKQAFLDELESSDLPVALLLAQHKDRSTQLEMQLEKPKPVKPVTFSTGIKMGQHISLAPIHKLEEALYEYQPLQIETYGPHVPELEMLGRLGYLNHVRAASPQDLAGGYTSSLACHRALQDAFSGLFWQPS

N#Cc1ccc2c(-c3nc(N[C@@H]4CNC[C@H](O)C4)ncc3C(F)(F)F)c[nH]c2c1 [Compound 370, 3-[2-[[(3S,5R)-5-hydroxy-3-piperidyl]amino]-5-(trifluoromethyl)pyrimidin-4-yl]-1H-indole-6-carbonitrile]
IC50 [1]: 20 to 200 nM
IC50 ([1]; listed as 130): > 5000 nM
IC50 (CDK9/Cyclin T1 complex): > 5000 nM
IC50 [2]: 200 to 5000 nM
IC50 ([2]; listed as 130): > 5000 nM
IC50 (CDK2/Cyclin E1 complex): > 5000 nM
IC50 (A673 cells): 200 to 5000 nM
IC50 (HCC70 cells; [3]): 100 to 1000 nM

CC1(C)CC[C@H](Nc2ncc(C(F)(F)F)c(-c3c[nH]c4ccccc34)n2)CN1 [Compound 190]
IC50 [1]: < 20 nM
IC50 (CDK9/Cyclin T1 complex): 200 to 5000 nM
IC50 [2]: 200 to 5000 nM
IC50 (CDK2/Cyclin E1 complex): 200 to 5000 nM
IC50 (A673 cells; Homo sapiens, A673, 72 h): < 20 nM
IC50 (HCC70 cells; [3]): 100 to 1000 nM

CCc1cnc(N[C@H]2CCCNC2)nc1-c1c[nH]c2nc(C#N)ccc12 [Compound 287, (S)-3-(5-ethyl-2-(piperidin-3-ylamino)pyrimidin-4-yl)-1H-pyrrolo[2,3-b]pyridine-6-carbonitrile]
IC50 [1]: < 20 nM
IC50 (CDK9/Cyclin T1 complex): > 5000 nM
IC50 [2]: > 5000 nM
IC50 (CDK2/Cyclin E1 complex): > 5000 nM
IC50 (A673 cells; Homo sapiens, A673, 72 h): 20 to 200 nM
IC50 (HCC70 cells; [3]): 100 to 1000 nM

CN1CCN(c2cccc3c(-c4nc(N[C@H]5CCCNC5)ncc4C(F)(F)F)c[nH]c23)C1=O [Compound 176]
IC50 [1]: < 20 nM
IC50 (CDK9/Cyclin T1 complex): 200 to 5000 nM
IC50 [2]: 200 to 5000 nM
IC50 (CDK2/Cyclin E1 complex): 200 to 5000 nM
IC50 (A673 cells; Homo sapiens, A673, 72 h): < 20 nM
IC50 (HCC70 cells; [3]): 100 to 1000 nM

CS(=O)(=O)c1c(C#N)ccc2c(-c3nc(N[C@H]4CCCNC4)ncc3C(F)(F)F)c[nH]c12 [Compound 232, 7-methylsulfonyl-3-[2-[[(3S)-3-piperidyl]amino]-5-(trifluoromethyl)pyrimidin-4-yl]-1H-indole-6-carbonitrile]
IC50 [1]: < 20 nM
IC50 (CDK9/Cyclin T1 complex): 200 to 5000 nM
IC50 [2]: 200 to 5000 nM
IC50 (CDK2/Cyclin E1 complex): 200 to 5000 nM
IC50 (A673 cells; Homo sapiens, A673, 72 h): < 20 nM
IC50 (HCC70 cells; [3]): < 100 nM

FC(F)n1ccc(-c2ccc3c(-c4nc(N[C@H]5CCCNC5)ncc4C(F)(F)F)c[nH]c3c2)n1 [Compound 289, 4-[6-[1-(difluoromethyl)pyrazol-3-yl]-1H-indol-3-yl]-N-[(3S)-3-piperidyl]-5-(trifluoromethyl) pyrimidin-2-amine]
IC50 [1]: 20 to 200 nM
IC50 (CDK9/Cyclin T1 complex): 200 to 5000 nM
IC50 [2]: 200 to 5000 nM
IC50 (CDK2/Cyclin E1 complex): 200 to 5000 nM
IC50 (A673 cells; Homo sapiens, A673, 72 h): 20 to 200 nM
IC50 (HCC70 cells; [3]): 100 to 1000 nM

CCN1C[C@@H](Nc2ncc(C(F)(F)F)c(-c3c[nH]c4cc(S(C)(=O)=O)ccc34)n2)CC(C)(C)C1 [Compound 369, N-[(3S)-1-ethyl-5,5-dimethyl-3-piperidyl]-4-(6-methylsulfonyl-1H-indol-3-yl)-5-(trifluoromethyl)pyrimidin-2-amine]
IC50 [1]: 20 to 200 nM
IC50 ([1]; listed as 129): 20 to 200 nM
IC50 (CDK9/Cyclin T1 complex): > 5000 nM
IC50 [2]: > 5000 nM
IC50 ([2]; listed as 129): 200 to 5000 nM
IC50 (CDK2/Cyclin E1 complex): > 5000 nM
IC50 (A673 cells): 20 to 200 nM
IC50 (HCC70 cells; [3]): 100 to 1000 nM

CCc1cnc(N[C@H]2CCCNC2)nc1-c1n[nH]c2nc(C#N)ccc12 [Compound 277, (S)-3-(5-ethyl-2-(piperidin-3-ylamino)pyrimidin-4-yl)-1H-pyrazolo[3,4-b]pyridine-6-carbonitrile]
IC50 [1]: < 20 nM
IC50 (CDK9/Cyclin T1 complex): 200 to 5000 nM
IC50 [2]: 200 to 5000 nM
IC50 (CDK2/Cyclin E1 complex): 200 to 5000 nM
IC50 (A673 cells; Homo sapiens, A673, 72 h): 20 to 200 nM
IC50 (HCC70 cells; [3]): 100 to 1000 nM

FC(F)(F)c1cnc(N[C@H]2CCCNC2)nc1-c1c[nH]c2cc(-c3ccn[nH]3)ccc12 [Compound 291, N-[(3S)-3-piperidyl]-4-[6-(1H-pyrazol-3-yl)-1H-indol-3-yl]-5-(trifluoromethyl) pyrimidin-2-amine]
IC50 [1]: < 20 nM
IC50 (CDK9/Cyclin T1 complex): 200 to 5000 nM
IC50 [2]: 200 to 5000 nM
IC50 (CDK2/Cyclin E1 complex): 200 to 5000 nM
IC50 (A673 cells; Homo sapiens, A673, 72 h): 20 to 200 nM
IC50 (HCC70 cells; [3]): 100 to 1000 nM

O=C(c1ccc2c(-c3nc(N[C@H]4CCCNC4)ncc3C(F)(F)F)c[nH]c2c1)N1CCCC1 [Compound 278, [3-[2-[[(3S)-3-piperidyl]amino]-5-(trifluoromethyl)pyrimidin-4-yl]-1H-indol-6-yl]-Pyrrolidin-1-yl-methanone]
IC50 [1]: 20 to 200 nM
IC50 (CDK9/Cyclin T1 complex): > 5000 nM
IC50 [2]: 200 to 5000 nM
IC50 (CDK2/Cyclin E1 complex): 200 to 5000 nM
IC50 (A673 cells; Homo sapiens, A673, 72 h): 20 to 200 nM
IC50 (HCC70 cells; [3]): 100 to 1000 nM

FC(F)(F)c1cnc(N[C@H]2CCCNC2)nc1-c1c[nH]c2c(-c3cn[nH]c3)cccc12 [Compound 170]
IC50 [1]: < 20 nM
IC50 (CDK9/Cyclin T1 complex): 200 to 5000 nM
IC50 [2]: 20 to 200 nM
IC50 (CDK2/Cyclin E1 complex): 200 to 5000 nM
IC50 (A673 cells; Homo sapiens, A673, 72 h): < 20 nM
IC50 (HCC70 cells; [3]): < 100 nM

CCc1cnc(N[C@H]2CCCNC2)nc1-c1c[nH]c2cc(C#N)ccc12 [Compound 246]
IC50 [1]: < 20 nM
IC50 (CDK9/Cyclin T1 complex): > 5000 nM
IC50 [2]: > 5000 nM
IC50 (CDK2/Cyclin E1 complex): > 5000 nM
IC50 (A673 cells): 200 to 5000 nM
IC50 (HCC70 cells; [4]): 100 to 1000 nM

C=CC(=O)N1CCC(CO[C@H]2CNC[C@@H](Nc3ncc(C(F)(F)F)c(-c4c[nH]c5c(S(C)(=O)=O)cccc45)n3)C2)CC1 [Compound 264]
IC50 [1]: 20 to 200 nM
IC50 (CDK9/Cyclin T1 complex): > 5000 nM
IC50 [2]: 200 to 5000 nM
IC50 (CDK2/Cyclin E1 complex): > 5000 nM
IC50 (A673 cells; Homo sapiens, A673, 72 h): < 20 nM
IC50 (HCC70 cells; [3]): 100 to 1000 nM

Cn1cc(-c2nc(NC3CCCNC3)ncc2C(F)(F)F)c2ccc(C#N)nc21 (stereo not drawn) [Compound 273]
IC50 [1]: 200 to 5000 nM
IC50 (CDK9/Cyclin T1 complex): > 5000 nM
IC50 [2]: > 5000 nM
IC50 (CDK2/Cyclin E1 complex): > 5000 nM
IC50 (A673 cells; Homo sapiens, A673, 72 h): 200 to 5000 nM
IC50 (HCC70 cells; [3]): 1000 to 5000 nM

CS(=O)(=O)c1c(C#N)ccc2c(-c3nc(N[C@H]4CCCNC4)ncc3Cl)c[nH]c12 [Compound 294, 3-[5-chloro-2-[[(3S)-3-piperidyl]amino]pyrimidin-4-yl]-7-methylsulfonyl-1H-indole-6-carbonitrile]
IC50 [1]: < 20 nM
IC50 ([1]; listed as 109): < 20 nM
IC50 (CDK9/Cyclin T1 complex): 200 to 5000 nM
IC50 (CDK9/Cyclin T1 complex; listed as 109): 200 to 5000 nM
IC50 [2]: 200 to 5000 nM
IC50 ([2]; listed as 109): 20 to 200 nM
IC50 (CDK2/Cyclin E1 complex): 200 to 5000 nM
IC50 (CDK2/Cyclin E1 complex; listed as 109): 200 to 5000 nM
IC50 (A673 cells): 20 to 200 nM
IC50 (HCC70 cells; [3]): < 100 nM
IC50 (HCC70 cells; listed as 109, read-out: Inhibition of Proliferation of HCC70 Cells (calculated IC50)): 100 to 1000 nM

CCc1cnc(NC2CCCNC2)nc1-c1c[nH]c2c(F)cccc12 (stereo not drawn) [Compound 144]
IC50 [1]: < 20 nM
IC50 (CDK9/Cyclin T1 complex): 200 to 5000 nM
IC50 [2]: 200 to 5000 nM
IC50 (CDK2/Cyclin E1 complex): 200 to 5000 nM
IC50 (A673 cells; Homo sapiens, A673, 72 h): 20 to 200 nM
IC50 (HCC70 cells; [3]): 100 to 1000 nM

FC(F)(F)c1cnc(N[C@@H]2CNC[C@H](c3nnc4ccccn34)C2)nc1-c1c[nH]c2ccccc12 [Compound 267]
IC50 [1]: 20 to 200 nM
IC50 (CDK9/Cyclin T1 complex): 200 to 5000 nM
IC50 [2]: 200 to 5000 nM
IC50 (CDK2/Cyclin E1 complex): 200 to 5000 nM
IC50 (A673 cells): < 20 nM
IC50 (HCC70 cells; [4]): < 100 nM

CC1(O)CCN(C(=O)c2ccc3c(-c4nc(N[C@H]5CCCNC5)ncc4C(F)(F)F)c[nH]c3c2)C1 (single isomer, unassigned) [Compound 221]
IC50 [1]: < 20 nM
IC50 (CDK9/Cyclin T1 complex): > 5000 nM
IC50 [2]: > 5000 nM
IC50 (CDK2/Cyclin E1 complex): > 5000 nM
IC50 (A673 cells; Homo sapiens, A673, 72 h): 200 to 5000 nM
IC50 (HCC70 cells; [3]): 100 to 1000 nM

COCn1cc(-c2nc(NC3CCCNC3)ncc2C(F)(F)F)c2ccc(C#N)nc21 (stereo not drawn) [Compound 283]
IC50 [1]: 200 to 5000 nM
IC50 (CDK9/Cyclin T1 complex): > 5000 nM
IC50 [2]: > 5000 nM
IC50 (CDK2/Cyclin E1 complex): > 5000 nM
IC50 (A673 cells; Homo sapiens, A673, 72 h): 200 to 5000 nM
IC50 (HCC70 cells; [3]): 1000 to 5000 nM
